In ChEMBL document CHEMBL1201862, “PubChem BioAssay data set” (2004):
Active and inactive are the calls of the source.

Assays:
Genome polyprotein = Genome polyprotein (dengue virus type 2, UniProt P29990); experiment: flavivirus cap methylation enzyme inhibition – biochemical, confirmation dose response, primary screen (AID 588689); type: functional
[1] = OVCAR-3 cell viability loss – plate reader, dry powder samples, PAX8 inhibitor project, dose response (AID 743044); type: functional, cell-based
[2] = OVCAR8 cell viability loss – plate reader, dry powder samples, PAX8 project, dose response (AID 743197); type: functional, cell-based; details: OVCAR-8
Paired box protein Pax-8 = Paired box protein Pax-8 (Homo sapiens, UniProt Q06710); experiment: PAX8 transcriptional activity inhibition in RMG-I – RMG-I cells, luciferase, cherry-pick, dose response (AID 687027); type: functional, cell-based;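 further: luciferase reporter driven by Pax8 target thyroperoxidase promoter measured by SteadyGlo luminescence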
[3] = molecular target: T1, Short transient receptor potential channel 4 (Mus musculus, UniProt Q9QUQ5); experiment: block of DAMGO-driven TRPC4 calcium entry – cell-based, HEK293 TRPC4/mu-opioid, Fluo-4 calcium, dose response (AID 434942); type: functional;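 further: potency of inhibitors blocking the TRPC4 calcium response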
T1 sequence (Q9QUQ5 whole entry): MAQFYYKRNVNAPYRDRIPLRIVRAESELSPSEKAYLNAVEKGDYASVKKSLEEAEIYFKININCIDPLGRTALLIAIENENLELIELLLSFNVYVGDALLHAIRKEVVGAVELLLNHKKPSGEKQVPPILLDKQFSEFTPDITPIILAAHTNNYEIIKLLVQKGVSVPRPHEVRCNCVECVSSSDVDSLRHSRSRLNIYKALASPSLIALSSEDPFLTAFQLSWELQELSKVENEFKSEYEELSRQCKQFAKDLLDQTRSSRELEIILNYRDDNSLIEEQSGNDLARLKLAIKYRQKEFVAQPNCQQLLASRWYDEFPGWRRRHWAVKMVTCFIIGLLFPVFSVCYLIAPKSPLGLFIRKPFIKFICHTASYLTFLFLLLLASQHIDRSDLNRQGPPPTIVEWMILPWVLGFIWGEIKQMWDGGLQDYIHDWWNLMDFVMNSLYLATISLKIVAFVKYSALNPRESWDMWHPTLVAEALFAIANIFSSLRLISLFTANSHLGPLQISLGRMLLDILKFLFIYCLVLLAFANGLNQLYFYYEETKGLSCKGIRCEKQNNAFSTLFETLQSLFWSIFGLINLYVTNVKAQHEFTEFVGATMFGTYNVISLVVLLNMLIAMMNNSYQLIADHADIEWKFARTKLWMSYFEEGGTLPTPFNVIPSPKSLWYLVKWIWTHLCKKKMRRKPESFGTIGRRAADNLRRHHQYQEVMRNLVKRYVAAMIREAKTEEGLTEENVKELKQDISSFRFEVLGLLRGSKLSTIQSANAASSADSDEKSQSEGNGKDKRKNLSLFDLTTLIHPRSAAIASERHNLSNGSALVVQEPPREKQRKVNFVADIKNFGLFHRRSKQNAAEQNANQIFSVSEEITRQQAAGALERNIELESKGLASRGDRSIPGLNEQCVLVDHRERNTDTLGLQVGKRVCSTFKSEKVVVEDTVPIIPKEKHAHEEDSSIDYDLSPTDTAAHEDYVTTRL

Cytochrome P450 3A4 = Cytochrome P450 3A4 (Homo sapiens, UniProt P08684); details: Potency;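 further: confirmatory qHTS run detecting inhibitors and substrates of CYP3A4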
[4] = intracellular Trypanosoma cruzi inhibitors in host cells – cell-based, plate reader, cherry-pick samples, set 3, dose response (AID 651818); type: functional;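 further: compounds incubated with infected cells for about four days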
[5] = molecular target: Heat shock protein HSP 90-alpha (Homo sapiens, UniProt P07900); type: functional, organism-based

Paired box protein Pax-8, sequence (Q06710 whole entry): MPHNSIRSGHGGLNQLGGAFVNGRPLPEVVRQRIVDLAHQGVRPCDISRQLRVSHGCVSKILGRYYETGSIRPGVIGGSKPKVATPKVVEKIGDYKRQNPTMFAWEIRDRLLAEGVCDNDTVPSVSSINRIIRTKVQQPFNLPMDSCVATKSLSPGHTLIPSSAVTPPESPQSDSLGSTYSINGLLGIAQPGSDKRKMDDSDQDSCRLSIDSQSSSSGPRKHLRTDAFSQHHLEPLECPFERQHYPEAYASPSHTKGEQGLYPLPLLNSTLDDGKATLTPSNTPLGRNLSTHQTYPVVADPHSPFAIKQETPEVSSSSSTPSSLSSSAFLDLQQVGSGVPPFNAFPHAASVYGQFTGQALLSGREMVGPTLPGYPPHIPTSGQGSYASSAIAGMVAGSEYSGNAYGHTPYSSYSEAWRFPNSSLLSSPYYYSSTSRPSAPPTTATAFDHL
Cytochrome P450 3A4, sequence (P08684 whole entry): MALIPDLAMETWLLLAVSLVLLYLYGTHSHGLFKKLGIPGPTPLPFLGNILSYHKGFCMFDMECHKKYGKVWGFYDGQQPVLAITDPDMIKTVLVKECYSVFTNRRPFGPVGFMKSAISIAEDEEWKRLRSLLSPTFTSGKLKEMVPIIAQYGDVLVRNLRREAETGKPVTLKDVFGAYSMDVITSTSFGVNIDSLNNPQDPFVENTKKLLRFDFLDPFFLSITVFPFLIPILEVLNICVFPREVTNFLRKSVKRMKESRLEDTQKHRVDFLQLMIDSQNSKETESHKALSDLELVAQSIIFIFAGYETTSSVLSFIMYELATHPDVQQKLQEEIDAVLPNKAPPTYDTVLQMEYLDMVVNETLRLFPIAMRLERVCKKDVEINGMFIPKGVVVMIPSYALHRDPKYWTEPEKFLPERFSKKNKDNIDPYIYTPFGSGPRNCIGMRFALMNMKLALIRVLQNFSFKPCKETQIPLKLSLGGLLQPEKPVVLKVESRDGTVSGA
Genome polyprotein, sequence (P29990 2492-3391 limits assumed): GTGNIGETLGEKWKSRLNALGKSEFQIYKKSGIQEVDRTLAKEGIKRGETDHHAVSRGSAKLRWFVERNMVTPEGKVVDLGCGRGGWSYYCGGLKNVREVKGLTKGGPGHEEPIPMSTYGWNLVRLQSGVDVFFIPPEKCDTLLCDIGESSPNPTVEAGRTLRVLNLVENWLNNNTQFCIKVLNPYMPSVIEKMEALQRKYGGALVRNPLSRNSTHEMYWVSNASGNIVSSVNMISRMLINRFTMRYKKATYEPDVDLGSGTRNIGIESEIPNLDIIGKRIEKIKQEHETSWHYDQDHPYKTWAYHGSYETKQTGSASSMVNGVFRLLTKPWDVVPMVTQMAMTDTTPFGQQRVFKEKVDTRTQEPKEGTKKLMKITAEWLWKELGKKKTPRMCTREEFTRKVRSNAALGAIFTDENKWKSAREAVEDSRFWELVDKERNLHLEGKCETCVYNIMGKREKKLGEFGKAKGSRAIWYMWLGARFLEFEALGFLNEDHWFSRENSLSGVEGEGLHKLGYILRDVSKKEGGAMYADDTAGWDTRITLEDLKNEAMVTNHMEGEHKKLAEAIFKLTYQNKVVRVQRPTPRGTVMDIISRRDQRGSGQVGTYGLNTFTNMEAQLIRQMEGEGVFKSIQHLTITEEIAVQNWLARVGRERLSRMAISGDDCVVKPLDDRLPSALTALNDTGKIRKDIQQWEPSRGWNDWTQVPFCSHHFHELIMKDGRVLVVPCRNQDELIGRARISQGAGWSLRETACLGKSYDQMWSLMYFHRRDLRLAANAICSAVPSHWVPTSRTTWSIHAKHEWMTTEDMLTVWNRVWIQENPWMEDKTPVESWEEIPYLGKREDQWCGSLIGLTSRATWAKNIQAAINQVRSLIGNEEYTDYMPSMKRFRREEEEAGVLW

COc1cccc(/C=C2/C(=O)NN(c3ccc(F)cc3)C2=O)c1
IC50 (Genome polyprotein): 38.1 µM (active)

COc1ccc2c3c([nH]c2c1)[C@H](CO)N(C(=O)Nc1cccc(F)c1)CC31CCN(S(=O)(=O)c2cccc(C)c2)CC1
AC50 [1]: 42.4 µM (active) | AC50 [2]: > 70 µM (inactive) | AC50 (Paired box protein Pax-8): 5.2 µM (active)

CC(C)c1nc(CNC(=O)CC2C(=O)NCCN2Cc2ccc(F)cc2Cl)cs1 (configuration not stated)
EC50 [3]: 1.88 µM (active)

C[C@H](CO)N1C[C@H](C)[C@H](CN(C)Cc2ccc(C(F)(F)F)cc2)OCCCC[C@H](C)Oc2ccc(NC(=O)NC3CCCCC3)cc2C1=O
AC50 [1]: 41.6 µM (active) | AC50 [2]: 41.7 µM (active) | AC50 (Paired box protein Pax-8): 10.1 µM (active)

CC(=O)NNc1ccccc1
AC50 (Cytochrome P450 3A4): 31.6 µM (inconclusive)

C[C@@H]1CN([C@H](C)CO)C(=O)c2cccc(NC(=O)Nc3ccc(C(F)(F)F)cc3)c2O[C@@H]1CN(C)Cc1ccc2c(c1)OCO2
AC50 [4]: 2.54 µM (active)

C[C@H]1CN([C@@H](C)CO)C(=O)c2cc(NC(=O)Nc3cccc4ccccc34)ccc2O[C@@H]1CN(C)Cc1ccc(Cl)c(Cl)c1
AC50 [4]: 3.43 µM (active)

C[C@@H]1CN([C@H](C)CO)C(=O)c2cccc(NC(=O)Nc3cccc4ccccc34)c2O[C@@H]1CN(C)S(=O)(=O)c1ccc(Cl)cc1
AC50 [1]: 43.3 µM (active) | AC50 [2]: 56.3 µM (active) | AC50 (Paired box protein Pax-8): 5.69 µM (active)

C[C@@H]1CN([C@@H](C)CO)C(=O)c2cc(NS(=O)(=O)c3ccc(Cl)cc3)ccc2O[C@H]1CN(C)Cc1ccc(Cl)c(Cl)c1
AC50 [4]: 3.37 µM (active)

COc1cccc(NC(=O)CCC(=O)N2CC(C)Oc3ccc(C)cc32)c1 (configuration not stated)
EC50 [3]: 0.531 µM (active)

O=C1c2cc(Cl)ccc2-c2c(O)cc(Cl)cc21
AC50 [5]: 2.08 µM (active)

CC1CCc2c(sc(/N=C/N(C)C)c2C#N)C1 (configuration not stated)
EC50 [3]: 2.99 µM (active)

COc1cc2cc(Oc3ccc4ccc(=O)oc4c3)c(=O)oc2cc1O [DAPHNORETIN]
AC50 (Cytochrome P450 3A4): 0.501 µM (inconclusive)

CC(=O)N1[C@H](C)C=C[C@]1(Cc1ccccc1)C(=O)NCc1ccccn1
AC50 (Cytochrome P450 3A4): 12.6 µM (inconclusive)

CCOc1ccc(Cl)cc1/C=N/O
EC50 [3]: 4.22 µM (active)

C[C@H](CO)N1C[C@H](C)[C@H](CN(C)C(=O)Nc2ccc(C(F)(F)F)cc2)Oc2ccc(NC(=O)Nc3ccc(C(F)(F)F)cc3)cc2C1=O
AC50 [4]: 4.23 µM (active)
